Experimental findings from patent US20240279281A1, “Peptide Inhibitors of Interleukin-23 Receptor” (Janssen Pharmaceutica NV, priority 2023, published 2024) are described below.

Read-outs that look alike come from different tables or passages of the source. Starred links: 1 amine or outer side, 2 acyl side, 3 side chain; linkers in the order of their positions; H or OH if unused. Positions of bridges follow the written chain, without caps; N, C: chain ends. Non-standard residues stand in square brackets, D forms with d. Residues, ends and D or L forms follow the SMILES beside them. *: point of attachment. X22 = CN(CCOCCOCC(=O)N(C)CCOCCOCC(=O)*)C(=O)CC[C@@H](C(=O)O)N(C)C(=O)CCCCCCCCCCCCCCCCCc1nnn[nH]1; Trp(7-(3-AcNH-Ph)) = CC(=O)Nc1cccc(-c2cccc3c(C[C@H](N)C(=O)O)c[nH]c23)c1; X12 = O=C([C@H](Cc1ccc2cc(F)ccc2c1)N[*:1])[*:2]; 2Nal(6-OH) = N[C@@H](Cc1ccc2cc(O)ccc2c1)C(=O)O; Trp(7-Me) = Cc1cccc2c(C[C@H](N)C(=O)O)c[nH]c12; AEF = NCCOc1ccc(C[C@H](N)C(=O)O)cc1; 3Pal = N[C@@H](Cc1cccnc1)C(=O)O; Pen = CC(C)(S)[C@H](N)C(=O)O; Thp = NC1(C(=O)O)CCOCC1; Sar = CNCC(=O)O

The conditions of data set [1]: disulfide bond, 20-membered ring.
For data set [2], the target named is T1, IL-23-stimulated phosphorylated STAT3 in peripheral blood mononuclear cells (PBMCs) (Homo sapiens, UniProt Q5VWK5).
T1 sequence (Q5VWK5 24-629): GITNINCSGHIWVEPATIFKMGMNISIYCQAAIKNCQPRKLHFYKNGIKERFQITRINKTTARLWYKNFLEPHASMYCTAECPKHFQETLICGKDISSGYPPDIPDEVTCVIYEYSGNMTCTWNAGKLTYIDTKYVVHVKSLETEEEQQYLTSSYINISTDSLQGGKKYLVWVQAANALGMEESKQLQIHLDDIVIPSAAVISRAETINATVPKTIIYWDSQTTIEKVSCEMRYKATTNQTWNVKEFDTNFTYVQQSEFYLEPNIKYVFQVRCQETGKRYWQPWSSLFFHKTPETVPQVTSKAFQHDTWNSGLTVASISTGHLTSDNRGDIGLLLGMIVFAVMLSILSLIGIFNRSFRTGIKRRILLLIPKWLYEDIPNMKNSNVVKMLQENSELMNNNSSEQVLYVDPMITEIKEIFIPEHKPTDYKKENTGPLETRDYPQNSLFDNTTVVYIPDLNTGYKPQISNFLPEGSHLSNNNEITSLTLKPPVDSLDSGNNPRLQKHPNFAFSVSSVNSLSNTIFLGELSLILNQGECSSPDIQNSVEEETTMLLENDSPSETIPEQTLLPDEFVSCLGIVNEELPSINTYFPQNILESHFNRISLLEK
The experiment in a line: PBMC pSTAT3 Assay. The format is cell-based. The method in brief: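 Anti-CD3/IL-1β-expanded donor PBMCs (day 4) starved ~4 h in RPMI-0.1% BSA, preincubated 30 min with peptide, then stimulated 30 min at 37° C with 5 ng/mL IL-23 (final). Lysates read for phospho-STAT3 by Meso Scale phospho-STAT panel immunoassay.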

For another data set, the target named is T2, IL-23R (Homo sapiens, UniProt Q5VWK5).
T2 construct: host or cells: HEK293
T2 sequence (Q5VWK5 24-629): T1 sequence (Q5VWK5 24-629)
Put plainly: IL23R Reporter Assay. The format is cell-based. On the procedure: Compounds were serially diluted in 100% (v/v) DMSO) and plated using an Echo acoustic dispenser (Labcyte) into 1536-well non-treated black assay plates (Corning #9146). […] After 5 h at 37° C., 5% CO2, 95% relative humidity, cells were placed at 20° C. and treated with BioGlo reagent (Promega) according to the Manufacturer's instructions. Luminescence was measured on a Pherastar FSX (BMG LabTech).

The mark [3] stands for this setting: PBMCs from healthy donors, IL-23 5 ng/mL, 30 minutes, read-out: PBMC pSTAT3 IC50.
Where [4] appears, read: HEK293 cells containing IL-23R, IL-12Rβ1 and STAT-inducible luciferase reporter, 10 ng/mL IL-23, 5 h, read-out: IC50.

Regarding `CC(=O)NCCCC[C@@H]1NC(=O)[C@H](Cc2c[nH]c3c(C)cccc23)NC(=O)[C@H]([C@@H](C)O)NC(=O)[C@H](CC(N)=O)NC(=O)[C@@H](NC(=O)[C@@H](CCCNC(=N)N)NC(C)=O)C(C)(C)SSC(C)(C)[C@@H](C(=O)N[C@@H](Cc2ccc(OCCN)cc2)C(=O)N[C@@H](Cc2ccc3cc(O)ccc3c2)C(=O)NC2(C(=O)N[C@@H](CCC(=O)O)C(=O)N[C@@H](CC(N)=O)C(=O)N[C@@H](Cc3cccnc3)C(=O)N(C)CC(=O)N[C@@H](CCCCNC(=O)COCCOCCN(C)C(=O)COCCOCCN(C)C(=O)CC[C@@H](C(=O)O)N(C)C(=O)CCCCCCCCCCCCCCCCCc3nnn[nH]3)C(N)=O)CCOCC2)NC1=O` [SEQ ID NO: 115, MeCO-r-Pen(3)-N-T-7MeW-K(Ac)-Pen(3)-AEF-6OH2Nal-THP-E-N-3Pya-Sar-K(PEG2NMePEG2NMegENMeCl8Tetrazole)-CONH2] (Ac-[dR][Pen]NT[Trp(7-Me)]K(Ac)[Pen][AEF][2Nal(6-OH)][Thp]EN[3Pal][Sar]K(X22)-NH2; disulfide 2-7), the ring closure, yield after HPLC in data set [1] (from Ac-dArg-Pen-Asn-Thr-7MeTrp-Lys(Ac)-Pen-AEF-6OH2Nal-THP-Glu-Asn-3Pya-Sar-Lys(PEG2NMePEG2NMegENMeCl8Tetrazole)-NH2, I2/MeOH, 20% MeCN/H2O, 0.503 mM) stood at 8.08%. The IC50 in data set [2] (read-out: PBMC pSTAT3 IC50, PBMCs from healthy donors, IL-23 5 ng/mL, 30 minutes) was in the range of 100 to 1000 pM; at IL-23R, 10000 to 100000 pM.
In data set [1] (from Ac-Pen-Asn-Thr-7MeTrp-Lys(Ac)-Pen-AEF-6OH2Nal-THP-Glu-Asn-3Pya-Sar-Lys(PEG2PEG2gEC18OH)-NH2, I2/MeOH, 20% MeCN/H2O, 0.82 mM), `CC(=O)NCCCC[C@@H]1NC(=O)[C@H](Cc2c[nH]c3c(C)cccc23)NC(=O)[C@H]([C@@H](C)O)NC(=O)[C@H](CC(N)=O)NC(=O)[C@@H](NC(C)=O)C(C)(C)SSC(C)(C)[C@@H](C(=O)N[C@@H](Cc2ccc(OCCN)cc2)C(=O)N[C@@H](Cc2ccc3cc(O)ccc3c2)C(=O)NC2(C(=O)N[C@@H](CCC(=O)O)C(=O)N[C@@H](CC(N)=O)C(=O)N[C@@H](Cc3cccnc3)C(=O)N(C)CC(=O)N[C@@H](CCCCNC(=O)COCCOCCNC(=O)COCCOCCNC(=O)CC[C@H](NC(=O)CCCCCCCCCCCCCCCCC(=O)O)C(=O)O)C(N)=O)CCOCC2)NC1=O` had a ring closure, yield after HPLC of 12.9%.
On to `CC(=O)NCCCC[C@@H]1NC(=O)[C@H](Cc2c[nH]c3c(-c4cccc(NC(C)=O)c4)cccc23)NC(=O)[C@H]([C@@H](C)O)NC(=O)[C@H](CC(N)=O)NC(=O)[C@@H](NC(=O)[C@@H](CCCNC(=N)N)NC(C)=O)C(C)(C)SSC(C)(C)[C@@H](C(=O)N[C@@H](Cc2ccc(OCCN)cc2)C(=O)N[C@@H](Cc2ccc3cc(O)ccc3c2)C(=O)NC2(C(=O)N[C@@H](CCC(=O)O)C(=O)N[C@@H](CC(N)=O)C(=O)N[C@@H](Cc3cccnc3)C(=O)N(C)CC(N)=O)CCOCC2)NC1=O` [compound 287, MeCO-r-Pen(3)-N-T-7(3NAcPh)W-K(Ac)-Pen(3)-AEF-6OH2Nal-THP-E-N-3Pya-Sar-CONH2] (Ac-[dR][Pen]NT[Trp(7-(3-AcNH-Ph))]K(Ac)[Pen][AEF][2Nal(6-OH)][Thp]EN[3Pal][Sar]-NH2; disulfide 2-7), for which the ring closure, yield after HPLC in data set [1] (from Ac-dArg-Pen-Asn-Thr-7(3NAcPh)Trp-Lys(Ac)-Pen-AEF-6OH2Nal-THP-Glu-Asn-3Pya-Sar-NH2, I2/MeOH, 20% MeCN/H2O, 0.8 mM) came out at 26%. In addition, the values for the IC50 (in data set [2] (setting [3]); at IL-23R (setting [4])) were 10 to 100 pM and under 10000 pM, respectively.
In turn, `CC(=O)NCCCC[C@@H]1NC(=O)[C@H](Cc2c[nH]c3c(C)cccc23)NC(=O)[C@H]([C@@H](C)O)NC(=O)[C@H](CC(N)=O)NC(=O)[C@@H](NC(=O)[C@@H](CCCNC(=N)N)NC(C)=O)C(C)(C)SSC(C)(C)[C@@H](C(=O)N[C@@H](Cc2ccc(OCCN)cc2)C(=O)N[C@@H](Cc2ccc3cc(F)ccc3c2)C(=O)NC2(C(=O)N[C@@H](CCC(=O)O)C(=O)N[C@@H](CC(N)=O)C(=O)N[C@@H](Cc3cccnc3)C(=O)N(C)CC(N)=O)CCOCC2)NC1=O` [SEQ ID NO: 407, MeCO-r-Pen(3)-N-T-7MeW-K(Ac)-Pen(3)-AEF-6F2Nal-THP-E-N-3Pya-Sar-CONH2] (Ac-[dR][Pen]NT[Trp(7-Me)]K(Ac)[Pen][AEF][X12][Thp]EN[3Pal][Sar]-NH2; disulfide 2-7) gave a ring closure, yield after HPLC in data set [1] (from Ac-dArg-Pen-Asn-Thr-7MeTrp-Lys(Ac)-Pen-AEF-6F2Nal-THP-Glu-Asn-3Pya-Sar-NH2, I2/MeOH, 20% MeCN/H2O, 0.85 mM) of 22.1%. The IC50 in data set [2] (setting [3]) is 10 to 100 pM; on IL-23R (setting [4]), under 10000 pM.
For `Cc1cccc2c(C[C@@H]3NC(=O)[C@H]([C@@H](C)O)NC(=O)[C@H](CC(N)=O)NC(=O)[C@@H](NC(=O)CCOCCOCC[N+](C)(C)C)C(C)(C)SSC(C)(C)[C@@H](C(=O)N[C@@H](Cc4ccc(OCCN)cc4)C(=O)N[C@@H](Cc4ccc5cc(O)ccc5c4)C(=O)NC4(C(=O)N[C@@H](CCCCN(C)C(=O)CCOCCOCC[N+](C)(C)C)C(=O)N[C@@H](CC(N)=O)C(=O)N[C@@H](Cc5cccnc5)C(=O)N(C)CC(N)=O)CCOCC4)NC(=O)[C@H](CCCCN(C)C(=O)CCOCCOCC[N+](C)(C)C)NC3=O)c[nH]c12`, the ring closure, yield after HPLC in data set [1] (from cPEG3aCO-Pen-Asn-Thr-7MeTrp-Lys(NMecPEG3a)-Pen-AEF-6OH2Nal-THP-Lys(NMecPEG3a)-Asn-3Pya-Sar-NH2, I2/MeOH, 20% MeCN/H2O, 0.6 mM) turned out to be 11.7%.
`CC(=O)NCCCC[C@@H]1NC(=O)[C@H](Cc2c[nH]c3c(C)cccc23)NC(=O)[C@H]([C@@H](C)O)NC(=O)[C@H](CC(N)=O)NC(=O)[C@@H](NC(=O)[C@@H](CCCNC(=N)N)NC(C)=O)C(C)(C)SSC(C)(C)[C@@H](C(=O)N[C@@H](Cc2ccc(OCCN)cc2)C(=O)N[C@@H](Cc2ccc3cc(O)ccc3c2)C(=O)NC2(C(=O)N[C@@H](CCC(=O)O)C(=O)N[C@@H](CC(N)=O)C(=O)N[C@@H](Cc3cccnc3)C(=O)N(C)CC(N)=O)CCOCC2)NC1=O`: in data set [1] (from Ac-dArg-Pen-Asn-Thr-7MeTrp-Lys(Ac)-Pen-AEF-6OH2Nal-THP-Glu-Asn-3Pya-Sar-NH2), the ring closure, yield after HPLC turned out to be 10.3%.
“MeCO-Pen(3)-E(2)-T-7MeW-K(Ac)-Pen(3)-AEF(2)-6OH2Nal-THP-K(Ac)-N-3Pya-Sar-CONH2” registered a ring closure, yield after HPLC in data set [1] (I2/MeOH, 20% MeCN/H2O, 0.85 mM) of 8.28%.
The molecule `CC(=O)NCCCC[C@@H]1NC(=O)[C@H](Cc2c[nH]c3c(C)cccc23)NC(=O)[C@H]([C@@H](C)O)NC(=O)[C@H](CC(N)=O)NC(=O)[C@@H](NC(=O)[C@@H](CCCNC(=N)N)NC(C)=O)C(C)(C)SSC(C)(C)[C@@H](C(=O)N[C@@H](Cc2ccc(OCCN)cc2)C(=O)N[C@@H](Cc2ccc3cc(Br)ccc3c2)C(=O)NC2(C(=O)N[C@@H](CCC(=O)O)C(=O)N[C@@H](CC(N)=O)C(=O)NC3(C(N)=O)CCOCC3)CCOCC2)NC1=O` had a ring closure, yield after HPLC in data set [1] (from Ac-dArg-Pen-Asn-Thr-7MeTrp-Lys(Ac)-Pen-AEF-6Br2Nal-THP-Glu-Asn-THP-NH2, I2/MeOH, 20% MeCN/H2O, 0.977 mM) of 34.1%.
In data set [1] (from Ac-dArg-Pen-Asn-Thr-7MeTrp-Lys(Ac)-Pen-AEF-6OH2Nal-THP-Glu-Asn-3Pya-Sar-Lys(PEG2PEG2gEC18OH)-NH2, I2/MeOH, 20% MeCN/H2O, 0.857 mM), `CC(=O)NCCCC[C@@H]1NC(=O)[C@H](Cc2c[nH]c3c(C)cccc23)NC(=O)[C@H]([C@@H](C)O)NC(=O)[C@H](CC(N)=O)NC(=O)[C@@H](NC(=O)[C@@H](CCCNC(=N)N)NC(C)=O)C(C)(C)SSC(C)(C)[C@@H](C(=O)N[C@@H](Cc2ccc(OCCN)cc2)C(=O)N[C@@H](Cc2ccc3cc(O)ccc3c2)C(=O)NC2(C(=O)N[C@@H](CCC(=O)O)C(=O)N[C@@H](CC(N)=O)C(=O)N[C@@H](Cc3cccnc3)C(=O)N(C)CC(=O)N[C@@H](CCCCNC(=O)COCCOCCNC(=O)COCCOCCNC(=O)CC[C@H](NC(=O)CCCCCCCCCCCCCCCCC(=O)O)C(=O)O)C(N)=O)CCOCC2)NC1=O` showed a ring closure, yield after HPLC of 12.1%.
Molecule “MeCO-k(d)-Pen(3)-N-T-7MeW-K(Ac)-Pen(3)-AEF-6OH2Nal-THP-E-N-3Pya-Sar-CONH2” had a ring closure, yield after HPLC in data set [1] (I2/AcOH, MeCN/H2O, 2.19 mM) of 31%.
